We go through two compounds from patent publication US20230068414A1, “Herbicide combinations comprising glufosinate and trifludimoxazin” (BASF SE, priority 2020, published 2023).

Molecules are shown by their SMILES.

Test [1] deals with Amaranthus palmeri (AMAPA). Nature of the test: Greenhouse postemergence weed control, percent injury vs untreated control. Format: in vivo. The text has this: (§1) For post-emergence treatments, glufosinate and trifludimoxazin, which had been suspended in water, were applied using spray nozzles providing fine to coarse droplets.
(§2) The herbicide compounds applied in the examples were used as experimental or commercially available solo or premix formulations which have been diluted with tap water to a suitable concentration. Glufosinate was used as a commercial SL formulation containing 280 g ai/l of glufosinate (Liberty 280 SL, BASF). While the PPO herbicide Vulcarus containing 500 g ai/l trifludimoxazin was used (Vulcarus 500 SC, BASF) formulation.
(§3) The evaluation for plant injury or damage caused by the chemical compositions was carried out using a scale from 0-100% when compared with the untreated control plants. Here, 0 means no damage and 100 means complete destruction of the plants.
(§4) 22., E=X+Y−(X*Y/100), where
(§5) X=effect in percent using herbicide A at an application rate of a;
(§6) Y=effect in percent using herbicide B at an application rate of b;
(§7) E=expected effect (in %) of A+B at application rates a+b.
(§8) The value E corresponds to the effect (plant damage or injury) which is to be expected if the activity of the individual compounds is just additive. If the observed effect is higher than the value E calculated according to Colby, a synergistic effect is present.
(§9) Weed Control of Glufosinate Plus Trifludimoxazin Mixtures (Greenhouse) Seedlings of velvetleaf (Abutilon theophrasti; ABUTH) and Palmer amaranth (Amaranthus palmeri; AMAPA were treated with postemergence applications of either glufosinate at 246 g ai/ha, trifludimoxazin at 6.25 g ai/ha, or the combination of glufosinate (246 g ai/ha) and trifludimoxazin (6.25 g ai/ha), respectively, when they were 5-10 cm in height. All glufosinate treatments contained 1% (w/v) ammonium sulfate and solo trifludimoxazin treatments contained 1% (w/v) ammonium sulfate plus 1% (v/v) MSO surfactant. Plants were placed in a completely randomized design with four replications per treatment. Percent injury data was collected 21 days after treatment (DAT).

In test [2] the test system is Abutilon theophrasti (ABUTH). The test is described as above. Format: in vivo.
From the text: as §1, §2, §3, §4, §5, §6, §7, §8, §9

With `C#CCN1C(=O)C(F)(F)Oc2cc(F)c(-n3c(=O)n(C)c(=S)n(C)c3=O)cc21` [Trifludimoxazin], the “Solo Trifludimoxazin (6.25 g ai/ha) % activity” value is given as 63% in test [1] (AMAPA seedlings 5-10 cm, postemergence, 6.25 g ai/ha, 1% ammonium sulfate plus 1% MSO, 21 DAT) and 70% in test [2] (ABUTH seedlings 5-10 cm, postemergence, 6.25 g ai/ha, 1% ammonium sulfate plus 1% MSO, 21 DAT).

Take `CP(=O)(O)CCC(N)C(=O)O` (racemic) [Glufosinate, (2RS)-2-amino-4-[hydroxy(methyl)phosphinoyl]butyric acid]: the inhibition at 246 g/ha in test [1] (Amaranthus palmeri, post-emergence, 504 h, read-out: Solo Glufosinate (246 g ai/ha) % activity) was 48%; in test [2] (Abutilon theophrasti, post-emergence, 504 h, read-out: Solo Glufosinate (246 g ai/ha) % activity), 23%.
